Reference: patent US20260015350A1, “AZAQUINAZOLINE PAN-KRAS INHIBITORS” (Mirati Therapeutics, Inc., priority 2022, published 2026)

Assays:
[1] = tested on: KRas-mediated phosphorylation of ERK in H727 cells; experiment: Inhibition of KRas-mediated phosphorylation of ERK (Cisbio HTRF pERK), H727 cells; type: cell-based; conditions: Homo sapiens; for inhibition at 0.1 µM: NCI-H727, 3 h, single point, 100 nM compound, 3 hrs, H727 cells; for IC50: NCI-H727, H727 cells, HTRF pERK
Summary of the method: (§1)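 Signal read by HTRF (d2/Cryptate antibody pair, 2 hr room-temperature incubation on lysate). Cells: 6,000 per well, 3 hr compound exposure. Titration: 10 uM highest, 3-fold, 10 points.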

KRas^G12S = molecular target: T1, KRas^G12S (Homo sapiens, UniProt P01116, G12S); experiment: KRas binding assay (TR-FRET tracer displacement), KRas G12S; conditions: TR-FRET tracer displacement, KRas G12S
T1 construct: Biotinylated KRas (corresponding to amino acids 1-169, produced at Accelegan Inc.); biotin (biotinylated); purchased Accelegan Inc
T1 sequence (P01116 1-169 isoform P01116-2 G12S): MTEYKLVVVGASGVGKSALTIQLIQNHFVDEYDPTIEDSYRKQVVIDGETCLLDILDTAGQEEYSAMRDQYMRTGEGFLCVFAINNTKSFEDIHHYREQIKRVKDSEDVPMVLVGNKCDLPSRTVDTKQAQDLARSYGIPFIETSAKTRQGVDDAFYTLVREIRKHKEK

KRas^G13D = molecular target: T2, KRas^G13D (Homo sapiens, UniProt P01116, G13D); experiment: KRas binding assay (TR-FRET tracer displacement), KRas G13D; conditions: TR-FRET tracer displacement, KRas G13D
T2 construct: Biotinylated KRas (corresponding to amino acids 1-169, produced at Accelegan Inc.); biotin (biotinylated); purchased Accelegan Inc
T2 sequence (P01116 1-169 isoform P01116-2 G13D): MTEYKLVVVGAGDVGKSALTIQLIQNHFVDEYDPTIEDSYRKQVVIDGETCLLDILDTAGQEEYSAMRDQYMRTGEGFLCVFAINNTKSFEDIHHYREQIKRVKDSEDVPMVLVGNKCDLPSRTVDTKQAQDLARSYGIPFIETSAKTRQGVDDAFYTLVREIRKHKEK

KRas^G12D = molecular target: T3, KRas^G12D (Homo sapiens, UniProt P01116, G12D); experiment: KRas binding assay (TR-FRET tracer displacement), KRas G12D
T3 construct: Biotinylated KRas (corresponding to amino acids 1-169, produced at Accelegan Inc.); biotin (biotinylated); purchased Accelegan Inc
T3 sequence (P01116 1-169 isoform P01116-2 G12D): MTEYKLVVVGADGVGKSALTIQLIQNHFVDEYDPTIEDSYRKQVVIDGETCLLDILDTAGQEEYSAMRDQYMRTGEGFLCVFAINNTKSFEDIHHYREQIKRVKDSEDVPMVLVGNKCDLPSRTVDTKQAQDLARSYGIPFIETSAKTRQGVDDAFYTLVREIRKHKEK

[2] = tested on: KRas-mediated phosphorylation of ERK in A549 cells; experiment: Inhibition of KRas-mediated phosphorylation of ERK (Cisbio HTRF pERK), A549 cells; type: cell-based; conditions: Homo sapiens, A549, 3 h, single point, 100 nM compound, 3 hrs
Summary of the method: (§2)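 Each compound was tested at 10 concentrations, threefold apart with 10 uM the highest, for 3 hrs on 6,000 seeded cells; final DMSO was 0.8% and Trametinib (0.2 uM) served as Min control. Lysed cells were analysed for pERK by HTRF.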

KRas^G12R = molecular target: T4, KRas^G12R (Homo sapiens, UniProt P01116, G12R); experiment: KRas binding assay (TR-FRET tracer displacement), KRas G12R
T4 construct: Biotinylated KRas (corresponding to amino acids 1-169, produced at Accelegan Inc.); biotin (biotinylated); purchased Accelegan Inc
T4 sequence (P01116 1-169 isoform P01116-2 G12R): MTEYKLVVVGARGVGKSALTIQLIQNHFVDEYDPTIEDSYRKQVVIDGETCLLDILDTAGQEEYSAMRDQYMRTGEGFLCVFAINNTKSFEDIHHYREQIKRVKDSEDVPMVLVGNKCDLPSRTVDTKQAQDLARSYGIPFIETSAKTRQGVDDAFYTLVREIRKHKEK

KRas^G12A = molecular target: T5, KRas^G12A (Homo sapiens, UniProt P01116, G12A); experiment: KRas binding assay (TR-FRET tracer displacement), KRas G12A; conditions: TR-FRET tracer displacement, KRas G12A
T5 construct: Biotinylated KRas (corresponding to amino acids 1-169, produced at Accelegan Inc.); biotin (biotinylated); purchased Accelegan Inc
T5 sequence (P01116 1-169 isoform P01116-2 G12A): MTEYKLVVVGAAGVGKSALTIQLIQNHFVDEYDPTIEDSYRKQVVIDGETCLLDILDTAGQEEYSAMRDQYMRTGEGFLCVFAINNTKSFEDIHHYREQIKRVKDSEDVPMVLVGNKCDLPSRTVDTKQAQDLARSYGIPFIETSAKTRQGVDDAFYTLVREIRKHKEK

KRas^G12C = molecular target: T6, KRas^G12C (Homo sapiens, UniProt P01116, G12C); experiment: KRas binding assay (TR-FRET tracer displacement), KRas G12C; conditions: TR-FRET tracer displacement, KRas G12C
T6 construct: Biotinylated KRas (corresponding to amino acids 1-169, produced at Accelegan Inc.); biotin (biotinylated); purchased Accelegan Inc
T6 sequence (P01116 1-169 isoform P01116-2 G12C): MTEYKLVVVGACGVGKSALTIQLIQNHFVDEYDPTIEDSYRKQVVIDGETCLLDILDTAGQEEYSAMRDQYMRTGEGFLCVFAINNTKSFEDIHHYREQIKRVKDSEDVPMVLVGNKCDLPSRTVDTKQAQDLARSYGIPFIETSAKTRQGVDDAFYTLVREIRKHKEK

KRas^WT = molecular target: T7, KRas^WT (Homo sapiens, UniProt P01116); experiment: KRas binding assay (TR-FRET tracer displacement), KRas WT; conditions: TR-FRET tracer displacement, KRas WT
T7 construct: Biotinylated KRas (corresponding to amino acids 1-169, produced at Accelegan Inc.); biotin (biotinylated); purchased Accelegan Inc
T7 sequence (P01116 1-169 isoform P01116-2): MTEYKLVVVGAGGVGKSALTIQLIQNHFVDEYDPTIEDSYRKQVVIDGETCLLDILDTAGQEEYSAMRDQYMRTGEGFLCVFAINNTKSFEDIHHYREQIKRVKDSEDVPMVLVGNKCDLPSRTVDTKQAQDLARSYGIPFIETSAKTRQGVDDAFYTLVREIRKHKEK

[3] = tested on: KRas-mediated phosphorylation of ERK in H358 cells; experiment: Inhibition of KRas-mediated phosphorylation of ERK (Cisbio HTRF pERK), H358 cells; type: cell-based; conditions: Homo sapiens, NCI-H358, 3 h, single point, 100 nM compound, 3 hrs
Summary of the method: as §1

KRas^G12V = molecular target: T8, KRas^G12V (Homo sapiens, UniProt P01116, G12V); experiment: KRas binding assay (TR-FRET tracer displacement), KRas G12V
T8 construct: Biotinylated KRas (corresponding to amino acids 1-169, produced at Accelegan Inc.); biotin (biotinylated); purchased Accelegan Inc
T8 sequence (P01116 1-169 isoform P01116-2 G12V): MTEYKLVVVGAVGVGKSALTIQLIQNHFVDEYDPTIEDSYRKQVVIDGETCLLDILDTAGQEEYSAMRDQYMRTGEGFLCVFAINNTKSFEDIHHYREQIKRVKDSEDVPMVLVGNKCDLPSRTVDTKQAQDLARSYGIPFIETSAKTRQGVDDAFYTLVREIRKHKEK

[4] = tested on: KRas-mediated phosphorylation of ERK in AsPC-1 cells; experiment: Inhibition of KRas-mediated phosphorylation of ERK (Cisbio HTRF pERK), AsPC-1 cells; type: cell-based; conditions: Homo sapiens; for inhibition at 0.1 µM: ASPC1, 3 h, single point, 100 nM compound, 3 hrs, AsPC-1 cells; for IC50: ASPC1, AsPC-1 cells, HTRF pERK
Summary of the method: as §1

KRas^Q61H = molecular target: T9, KRas^Q61H (Homo sapiens, UniProt P01116, Q61H); experiment: KRas binding assay (TR-FRET tracer displacement), KRas Q61H; conditions: TR-FRET tracer displacement, KRas Q61H
T9 construct: Biotinylated KRas (corresponding to amino acids 1-169, produced at Accelegan Inc.); biotin (biotinylated); purchased Accelegan Inc
T9 sequence (P01116 1-169 isoform P01116-2 Q61H): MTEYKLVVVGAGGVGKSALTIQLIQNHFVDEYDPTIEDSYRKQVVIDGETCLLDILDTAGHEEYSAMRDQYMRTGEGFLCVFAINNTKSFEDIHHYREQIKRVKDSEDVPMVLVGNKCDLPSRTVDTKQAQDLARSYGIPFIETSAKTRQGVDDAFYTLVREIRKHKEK

[5] = tested on: KRas-mediated phosphorylation of ERK in H460 cells; experiment: Inhibition of KRas-mediated phosphorylation of ERK (Cisbio HTRF pERK), H460 cells; type: cell-based; conditions: Homo sapiens, NCI-H460, 3 h, single point, 100 nM compound, 3 hrs
Summary of the method: as §1

[6] = tested on: KRas-mediated phosphorylation of ERK in HCT116 cells; experiment: Inhibition of KRas-mediated phosphorylation of ERK (Cisbio HTRF pERK), HCT116 cells; type: cell-based; conditions: Homo sapiens, HCT-116, 3 h, single point, 100 nM compound, 3 hrs
Summary of the method: as §2

SMILES	inhibition at 0.1 µM [1]	IC50 (KRas^G12S)	IC50 (KRas^G13D)	IC50 (KRas^G12D)	inhibition at 0.1 µM [2]	IC50 (KRas^G12R)	IC50 (KRas^G12A)	IC50 (KRas^G12C)	IC50 (KRas^WT)	inhibition at 0.1 µM [3]	IC50 (KRas^G12V)	inhibition at 0.1 µM [4]	IC50 (KRas^Q61H)	IC50 [1]	IC50 [4]	inhibition at 0.1 µM [5]	inhibition at 0.1 µM [6]
Cc1cc2[nH]c(=O)[nH]c2c(-c2ncc3c(N4CCC[C@@](C)(O)C4)nc(OCC45CCCN4CCC5)nc3c2F)c1C [Example 733, 4-(8-fluoro-4-((R)-3-hydroxy-3-methylpiperidin-1-yl)-2-((tetrahydro-1H-pyrrolizin-7a(5H)-yl)methoxy)pyrido[4,3-d]pyrimidin-7-yl)-5,6-dimethyl-1,3-dihydro-2H-benzo[d]imidazol-2-one]	-10%	1400 nM	1410 nM	933 nM	7%	2670 nM	1520 nM	1520 nM	1370 nM	-2%	1050 nM	-27%	2280 nM	–	–	–	–
Nc1nc2c(-c3ncc4c(N5CCCC6(C5)NC(=O)NC6=O)nc(OCC56CCCN5CCC6)nc4c3F)ccc(F)c2s1 (stereo not shown) [Example 736, 7-(7-(2-amino-7-fluorobenzo[d]thiazol-4-yl)-8-fluoro-2-((tetrahydro-1H-pyrrolizin-7a(5H)-yl)methoxy)pyrido[4,3-d]pyrimidin-4-yl)-1,3,7-triazaspiro[4.5]decane-2,4-dione]	-4%	75 nM	93 nM	2330 nM	2%	640 nM	173 nM	111 nM	139 nM	5%	664 nM	-3%	26 nM	–	–	–	–
CN(C)C(=O)c1cc2n(n1)CCCN(c1nc(OCC34CCCN3CCC4)nc3c(F)c(-c4c5ccccc5cc5[nH]ncc45)ncc13)C2 [Example 757, 5-(7-(1H-benzo[f]indazol-4-yl)-8-fluoro-2-((hexahydro-1H-pyrrolizin-7a-yl)methoxy)pyrido[4,3-d]pyrimidin-4-yl)-N,N-dimethyl-5,6,7,8-tetrahydro-4H-pyrazolo[1,5-a][1,4]diazepine-2-carboxamide]	–	43 nM	238 nM	12 nM	2%	101 nM	82 nM	46 nM	141 nM	10%	42 nM	–	203 nM	> 10000 nM	9840 nM	–	–
Cc1cc2c(c(-c3ncc4c(N5CCC[C@@](C)(O)C5)nc(OCC56CCCN5CCC6)nc4c3F)c1C)CC(=O)N2 [Example 784, 4-(8-fluoro-2-((hexahydro-1H-pyrrolizin-7a-yl)methoxy)-4-((R)-3-hydroxy-3-methylpiperidin-1-yl)pyrido[4,3-d]pyrimidin-7-yl)-5,6-dimethylindolin-2-one]	0%	475 nM	471 nM	1320 nM	–	4490 nM	717 nM	480 nM	665 nM	–	1920 nM	19%	746 nM	–	–	9%	9%
Oc1cc2ccccc2c(-c2ncc3c(N4C[C@@H]5C[C@H](C4)[C@H](O)C5)nc(OC[C@@]45CCCN4C[C@H](F)C5)nc3c2F)c1F [Example 751, (1R,5R,6R)-3-(8-fluoro-7-(2-fluoro-3-hydroxynaphthalen-1-yl)-2-(((2R,7aS)-2-fluorohexahydro-1H-pyrrolizin-7a-yl)methoxy)pyrido[4,3-d]pyrimidin-4-yl)-3-azabicyclo[3.2.1]octan-6-ol]	-50%	91 nM	172 nM	372 nM	-10%	139 nM	136 nM	165 nM	167 nM	-17%	93 nM	-2%	185 nM	3830 nM	5220 nM	–	–
Cc1cc2[nH]nnc2c(-c2ncc3c(N4CCC[C@@](C)(O)C4)nc(OCC45CCCN4CCC5)nc3c2F)c1C [Example 734, (3R)-1-(7-(5,6-dimethyl-1H-benzo[d][1,2,3]triazol-4-yl)-8-fluoro-2-((hexahydro-1H-pyrrolizin-7a-yl)methoxy)pyrido[4,3-d]pyrimidin-4-yl)-3-methylpiperidin-3-ol]	-3%	11600 nM	10500 nM	8110 nM	–	20600 nM	10300 nM	10600 nM	10500 nM	–	11600 nM	-18%	11400 nM	–	–	-3%	-13%
Oc1cc(-c2ncc3c(N4C[C@@H]5C[C@H](C4)[C@H](O)C5)nc(OC[C@@]45CCCN4C[C@H](F)C5)nc3c2F)c2ccccc2c1Br [Example 781, (1R,5R,6R)-3-(7-(4-bromo-3-hydroxynaphthalen-1-yl)-8-fluoro-2-(((2R,7aS)-2-fluorohexahydro-1H-pyrrolizin-7a-yl)methoxy)pyrido[4,3-d]pyrimidin-4-yl)-3-azabicyclo[3.2.1]octan-6-ol]	–	414 nM	551 nM	2450 nM	-24%	778 nM	716 nM	635 nM	754 nM	10%	727 nM	–	891 nM	> 10000 nM	8950 nM	–	–
Oc1cc2ccccc2c(-c2ncc3c(N4C[C@@H]5C[C@H](C4)[C@H](O)C5)nc(OC[C@@]45CCCN4C[C@H](F)C5)nc3c2F)c1Cl [Example 765, (1R,5R,6R)-3-(7-(2-chloro-3-hydroxynaphthalen-1-yl)-8-fluoro-2-(((2R,7aS)-2-fluorohexahydro-1H-pyrrolizin-7a-yl)methoxy)pyrido[4,3-d]pyrimidin-4-yl)-3-azabicyclo[3.2.1]octan-6-ol]	-13%	100 nM	146 nM	268 nM	28%	132 nM	139 nM	144 nM	156 nM	-5%	83 nM	-6%	164 nM	2910 nM	5910 nM	–	–
C[C@@]1(O)CCCN(c2nc(OCC34CCCN3CCC4)nc3c(F)c(-c4ccc(F)c5sc(N)nc45)ncc23)C1 [Example 735, (R)-1-(7-(2-amino-7-fluorobenzo[d]thiazol-4-yl)-8-fluoro-2-((hexahydro-1H-pyrrolizin-7a-yl)methoxy)pyrido[4,3-d]pyrimidin-4-yl)-3-methylpiperidin-3-ol]	-31%	2770 nM	2140 nM	1980 nM	–	3960 nM	2680 nM	3130 nM	1840 nM	–	2590 nM	14%	3530 nM	–	–	5%	-2%
